This note sets out measurements from patent EP1827382B1, “NOVEL GALENIC SYSTEM FOR ACTIVE PRINCIPLE TRANSPORT, PREPARATION METHOD AND USE” (Capsugel France, priority 2004, dated 2006).

The data set is described as follows: Resistance test in acid medium (omeprazole content after neutralisation, over time). The format is physicochemical. Particulars: stirred medium pH 1,2, 37,5°C; omeprazole assayed by HPLC after neutralisation to pH=6,8, over time; figure 1. Here is the method:
Pour déterminer la résistance au pH acide, les préparations sont placées en milieu agité à pH 1,2 à 37,5°C. La résistance au pH acide est déterminée par le dosage du taux d'Oméprazole après neutralisation à pH=6,8 en fonction du temps.
L'Oméprazole est dosée par HPLC après extraction.

Take `COc1ccc2[nH]c([S+]([O-])Cc3ncc(C)c(OC)c3C)nc2c1` (stereo not shown) [Oméprazole libre, Oméprazole]: the “résistance au pH acide” value was “dégradé en quelques minutes”.
